“Also recorded” adds a separate entry of the source.
Assays:
SNORF36a [1] = target: T1, SNORF36a (Homo sapiens, UniProt Q9UHM6); experiment: Intracellular Ca2+ mobilization (FLIPR) in human SNORF36a-transfected Cos-7 cells; type: cell-based; conditions: for EC50: photobleached SNORF36a-transfected Cos-7 cells, FLIPR, n=3
T1 sequence (Q9UHM6 1-478): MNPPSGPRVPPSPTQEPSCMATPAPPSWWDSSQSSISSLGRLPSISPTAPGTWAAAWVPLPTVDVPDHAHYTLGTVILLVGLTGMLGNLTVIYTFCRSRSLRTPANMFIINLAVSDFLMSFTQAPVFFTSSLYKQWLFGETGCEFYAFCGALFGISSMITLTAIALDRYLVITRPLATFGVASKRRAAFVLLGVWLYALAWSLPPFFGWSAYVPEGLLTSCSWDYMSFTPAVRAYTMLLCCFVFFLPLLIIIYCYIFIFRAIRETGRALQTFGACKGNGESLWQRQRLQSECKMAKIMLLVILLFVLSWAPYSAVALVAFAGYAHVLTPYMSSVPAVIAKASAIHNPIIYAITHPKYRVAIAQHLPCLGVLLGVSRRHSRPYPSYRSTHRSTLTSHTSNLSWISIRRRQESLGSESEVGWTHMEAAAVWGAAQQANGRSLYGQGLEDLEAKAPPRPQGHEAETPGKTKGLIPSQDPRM
Protocol: The intracellular free calcium (Ca^2+) concentration may be measured by the Fluorescence Imager Plate Reader (FLIPR™).
Cells transfected with appropriate DNA as described earlier were plated into clear, flat-bottom, black-wall 96-well plates (Costar) at a density of 80,000-150,000 cells per well and allowed to incubate for 24 hr at 5% CO2, 37° C. Whenever necessary, the cells were placed in a waterbath maintained at 37° C. and were exposed to a lamp light (50W) placed at a distance of approximately 30 cm, 90 to 120 min before the imaging. The growth medium was aspirated and 100 μl of loading medium containing fluo-3 dye was added to each well 60 min before the imaging. The loading medium contained: Hank's BSS (without phenol red) (Gibco), 20 mM HEPES (Sigma), 0.1 or 1% BSA (Sigma), dye/pluronic acid mixture (e.g. 1 mM Flou-3, AM (Molecular Probes) and 10% pluronic acid (Molecular Probes) mixed immediately before use), and 2.5 mM probenecid (Sigma) (prepared fresh). The cells were allowed to incubate for about 1 hour at 5% CO2, 37° C.
Before or during the incubation of cells with the dye-loading medium, the test compound plate was prepared. Since retinoids are chemically unstable and can undergo rapid photoisomerization (Hu et al., 1994), care was taken to weigh, dissolve and prepare appropriate concentrations of the test compound under photographic darkroom lights. The test compounds were diluted in wash buffer (Hank's BSS (without phenol red), 20 mM HEPES, 2.5 mM probenecid) to a 4× final concentration and aliquoted into a clear v-bottom plate (Nunc). The test compounds were protected from light till their addition to cells. Following the incubation with the dye-loading medium, the cells were washed to remove the excess dye. A Denley plate washer was used to gently wash the cells 4 times and leave a 100 μl final volume of wash buffer in each well. The cell plate was placed in the center tray and the test compound plate was placed in the right tray of the FLIPR. The FLIPR software was setup for the experiment, the experiment was run and the data were collected. For the agonist experiment, the sampling rate in the FLIPR was every 1 sec for the first minute and every 2 sec for the next two minutes. In this paradigm, the test compound was added after recording base line for the first 10 sec. For the antagonist experiment, the sampling rate in the FLIPR was every 1 sec for the first minute, every 6 sec for the next 5 minutes, every 1 sec for the next one minute followed by every 2 sec next two minutes. To evaluate the antagonist activity, the test compound was added to the cells 10 sec after commencing the recording and the agonist was added at 310 sec of the recording. Baseline subtraction and negative control corrections were performed on the traces. The collected data were then analyzed using the Excel spreadsheet program.

SNORF36a [2] = target: T1, SNORF36a; experiment: Light-elicited currents in voltage-clamped Xenopus oocytes expressing SNORF36a; type: cell-based; design: expressed in transfected cells; host or cells: Xenopus laevis oocytes injected with synthetic mRNA transcribed from plasmid BO109; conditions: pre-incubated in the dark 24-48 h at 100 nM in ND96
Protocol: (§1) In the present invention, oocytes were harvested from Xenopus laevis and injected with mRNA transcripts as previously described (Quick and Lester, 1994; Smith et al., 1997). SNORF36a RNA transcripts were synthesized using the T7 polymerase (“Message Machine”, Ambion) from the plasmid BO109 linearized with NotI. Oocytes were injected with 5-25 ng synthetic RNA and incubated for 3-8 days at 17° C. Dual electrode voltage clamp (Axon Instruments Inc.) was performed using 3 M KCl-filled glass microelectrodes having resistances of 1-2 MOhm. Unless otherwise specified, oocytes were voltage clamped at a holding potential of −80 mV. During recordings, oocytes were bathed in continuously flowing (1-3 ml/min) medium containing 96 mM NaCl, 2 mM KCl, 1.8 mM CaCl2, 1 mM MgCl2, 5 mM HEPES, pH 7.5 (ND96), and the appropriate ligand.
Experiments were carried out under minimal light conditions which required compound weighing, final dilutions and oocyte recordings to be performed under photographic darkroom lights (“Brightlab Junior” safelight). In some cases, the ligands were briefly exposed to room light (5-10 min.) during the weighing procedure. For eliciting physiological responses from oocytes, the light stimulus was a 60 W tungsten lamp set at a distance of 30 cm from the oocyte. Drugs were applied either by superfusion, switching from a series of gravity fed perfusion lines, or by local perfusion from a 10 μl glass capillary tube fixed at a distance of 0.5 mm from the oocyte. Experiments were carried out at room temperature. All values are expressed as mean ± standard error of the mean.

[3] = test system: Control oocytes, not injected with SNORF36a mRNA; experiment: Light-elicited currents in control Xenopus oocytes not injected with SNORF36a mRNA; type: cell-based, Xenopus laevis; conditions: control uninjected oocytes pre-incubated with ligand (100 nM, 24 h), n=10 oocytes
Protocol: as §1
Experiments were carried out under minimal light conditions which required compound weighing, final dilutions and oocyte recordings to be performed under photographic darkroom lights (“Brightlab Junior” safelight). In some cases, the ligands were briefly exposed to room light (5-10 min.) during the weighing procedure. For eliciting physiological responses from oocytes, the light stimulus was a 60 W tungsten lamp set at a distance of 30 cm from the oocyte. […] All values are expressed as mean ± standard error of the mean.

[4] = test system: vector-transfected Cos-7 cells; experiment: Inositol phosphate assay in empty vector-transfected Cos-7 cells; type: cell-based; conditions: vector-transfected Cos-7 cells exposed to lamp light
Protocol: (§2) Human SNORF36a receptor-mediated activation of the inositol phosphate (IP) second messenger pathways was assessed by radiometric measurement of IP products.
(§3) Cells were plated at a density of 70,000 cells per well and allowed to incubate for 24 hours. The cells were then labeled with 0.5 μCi [^3H]myo-inositol overnight at 37° C., 5% CO2. Immediately before the assay, the medium was removed and replaced with 180 μL of Phosphate-Buffered Saline (PBS) containing 10 mM LiCl. The plates were then incubated for 20 min at 37° C., 5% CO2. Following the incubation, the cells were challenged with agonist (20 μl/well; 10× concentration) for 30 min at 37° C. and were simultaneously either exposed or not to a lamp light (50W) placed at approximately 30 cm distance from the cells. The challenge was terminated by the addition of 100 μL of 5% v/v trichloroacetic acid, followed by incubation at 4° C. for greater than 30 minutes. Total IPs were isolated from the lysate by ion exchange chromatography. Briefly, the lysed contents of the wells were transferred to a Multiscreen HV filter plate (Millipore) containing Dowex AGI-X8 (200-400 mesh, formate form). The filter plates were prepared adding 100 μL of Dowex AG1-X8 suspension (50% v/v, water: resin) to each well. […] 200 μL of scintillation cocktail was added to each well, and the radioactivity was determined by liquid scintillation counting.

SNORF36a [5] = target: T1, SNORF36a; experiment: Inositol phosphate assay (phosphoinositide hydrolysis) in human SNORF36a-transfected Cos-7 cells; type: cell-based
Protocol: as §2, §3

[6] = antagonist at 10 μM, hSNORF36a-transfected Cos-7 cells, n=2

SMILES | EC50 (SNORF36a [1]) | response to light stimulus after pre-incubation (SNORF36a [2]) | response to light [3] | also measured
CC1=C(/C=C/C(C)=C\C=C\C(C)=C\C=O)C(C)(C)CCC1 [9-cis-retinal] | 152 nM | – | – | –
CC1=C(/C=C/C(C)=C/C=C/C(C)=C/C(=O)O)C(C)(C)CCC1 [ATRA, all-trans-retinoic acid] | – | rapidly desensitizing Cl^− currents | – | –
CC(=O)/C=C/C1=C(C)CCCC1(C)C [β-ionone] | – | – | – | nature of the antagonism (SNORF36a [1]; 10 μM against all-trans-retinal and 9-cis-retinal, hSNORF36a-transfected Cos-7 cells): insurmountable; antagonism of 9-cis-retinal-induced Ca2+ mobilization (SNORF36a [1]; [6]): significantly antagonized; antagonism of all-trans-retinal-induced Ca2+ mobilization (SNORF36a [1]; [6]): significantly antagonized

More lines, main results first:

EC50 (SNORF36a [1]) | SMILES | response to light stimulus after pre-incubation (SNORF36a [2]) | response to light [3] | also measured
477 nM | CC1=C(/C=C/C(C)=C/C=C/C(C)=C/C=O)C(C)(C)CCC1 [13-cis-retinal] | rapidly desensitizing Cl^− currents | did not respond to light | –
263 nM | CC1=C(/C=C/C(C)=C/C=C/C(C)=C/C=O)C(C)(C)CCC1 [all-trans-retinal] | rapidly desensitizing Cl^− currents | fails to respond to light; also recorded: did not respond to light | 3H-IP accumulation [4]: not in vector-transfected cells; 3H-IP accumulation (SNORF36a [5]; SNORF36a-transfected Cos-7 cells exposed to lamp light, n=2): Concentration-dependent increase; 3H-IP levels (SNORF36a [5]; SNORF36a-transfected Cos-7 cells not exposed to light, n=1): did not change
